According to patent publication US4206088A, “Solid conducting agent” (priority 1978, dated 1980):
Structures can show the parent of a compound that is named as a salt.

Experiment: volume resistivity
Type: physicochemical
Details: 23° C., 50% relative humidity
Experimental: In the present invention, it is very important that the above-mentioned protonically conductive solid should be adsorbed and supported on a finely divided inorganic solid acid.
Incidentally, in this and subsequent Examples, all the values of the volume resistivity were those as measured at a temperature of 23° C. and a relative humidity of 50%, unless otherwise indicated.

SMILES | volume resistivity
NCCN [Ethylenediamine sulfate] | 2.74×10^8 .OMEGA.-cm
C1N2CN3CN1CN(C2)C3 [Hexamethylene-tetraamine succinate] | 2.05×10^11 .OMEGA.-cm
N=C(N)N [Guanidine sulfate] | 6.69×10^7 .OMEGA.-cm
C1CCNCC1.O=S(=O)(O)O [piperidine sulfate] | 3.54×10^7 .OMEGA.-cm
C1CNCCN1.O=S(=O)(O)O [Piperazine sulfate] | 9.35×10^7 .OMEGA.-cm

Experiment: not given
Details: as determined at 20° C.; cited from earlier work

SMILES | First Stage Base Dissociation Constant (pKb)
CCCCCN [Amylamine] | 3.37
CN [Methylamine] | 3.38
C=CCN [Allylamine] | 3.51
Nc1ccncc1 [4-Aminopyridine] | 4.83
CCNN [Ethylhydrazine] | 6.29
CCN [Ethylamine] | 3.37
CNC [Dimethylamine] | 3.13
N=C(N)Nc1ccccc1 [Phenylguanidine] | 3.23
CN(C)C [Trimethylamine] | 4.24
C1CNC1 [Trimethylene-imine] | 2.71
CCNCC [Diethylamine] | 3.02
NO [Hydroxylamine] | 8.03
CNN [Methylhydrazine] | 6.13
C1CCNCC1 [Piperidine] | 2.78
NN [Hydrazine] | 6.07
NC1CCCCC1 [Cyclohexylamine] | 3.36
C1CCNC1 [Pyrrolidine] | 2.73
c1ccc(-c2ccccn2)nc1 [2,2'-Bis-pyridine] | 9.88
